Measured values as given in patent US20060251576A1, “Methods for measuring cholesterol metabolism and transport” (The Regents of the University of California, priority 2005, published 2006).

System: reverse cholesterol transport (RCT)
Test: Global RCT parameter in rats: Ra cholesterol combined with recovery of administered labeled cholesterol in fecal neutral sterols or bile acids
Type: in vivo
Conditions: for "global parameter" of RCT into neutral sterols (product of Ra cholesterol and excretion of plasma cholesterol): rats fed the agent for 7 days
Description: A refinement of the approach outlined in Example 1, involves calculating the Ra of plasma cholesterol and combining that measurement with the fractional excretion of administered cholesterol as described in Example 4. The recovery of plasma cholesterol in stool is defined as the proportion of administered labeled cholesterol that was excreted in fecal neutral sterols. It is expressed as % label recovered from day 1-4 following infusion. It is calculated from: % ^13C enrichment in fecal neutral sterols, the mg/day excretion of neutral sterols and divided by total mg 1 ^13C cholesterol administered. [formula] The same calculation is made for the recovery of plasma cholesterol into bile acids excreted in stool. Rats were treated with common and investigational cholesterol lowering agents, cholesterolamine, ezetimibe, LXR agonist (TO-901317). The Ra of cholesterol is calculated as described, the recovery of administered cholesterol in fecal sterol or bile acids are calculated as described.

SMILES	excretion of plasma cholesterol into neutral sterols and the global parameter of RCT (rats)	"global parameter" of RCT into neutral sterols (product of Ra cholesterol and excretion of plasma cholesterol)	plasma flux to neutral sterols (effect on RCT) (rats, FIG. 12)
O=S(=O)(c1ccccc1)N(CC(F)(F)F)c1ccc(C(O)(C(F)(F)F)C(F)(F)F)cc1 [TO-901317]	observed increase in RCT	significant increase observed	
O=C1[C@H](CC[C@H](O)c2ccc(F)cc2)[C@@H](c2ccc(O)cc2)N1c1ccc(F)cc1 [ezetimibe]		significant increase observed	increase in plasma flux to neutral sterols
